# Source: US9365862B1, “Herbicide resistant sorghum mutants” (NUtech Ventures, priority 2011, dated 2016)
# Experiments:
# Assay in all cases: Greenhouse bioassay for resistance to ALS-inhibiting herbicides (dry matter, visual injury)
# Type in all cases: in vivo, Shattercane (Sorghum bicolor subsp. X drummondii)
# [1] = test system: shattercane biotype P9-102 (Mutant B); conditions: dry matter and visual ratings
# Protocol: (§1) The bioassay experiment was conducted in a greenhouse on the East Campus of the University of Nebraska-Lincoln, in Lincoln, Nebr. The experimental design was a randomized complete block. Shattercane seed was planted in 0.9 L square plastic pots in Miracle-Gro® Moisture Control® Potting Mix (The Scotts Company LLC, Marysville, Ohio). The photoperiod was 15/9 light/dark with supplemental light provided by sodium halide lamps. Greenhouse temperatures were maintained at 24±2 C (day) and 19±2 C (night). Shattercane was thinned to 1 plant per pot when it reached the 2 leaf stage. Herbicide treatments (Table 1 in Appendix I) were applied when the shattercane reached the V4 growth stage and was approximately 12 cm tall. Individual plants ranged from growth stage V3 to V5, and in height from 7 to 19 cm. At least one tiller had formed on most plants by the time of application. Herbicides were applied using an 8001 even flat fan nozzle at 207 kPa in a single-tip track sprayer located in the greenhouse facility. The application rate was 187 l/ha, and treatment solutions were prepared in distilled water. Visual injury ratings were made 7, 14 and 21 days after treatment on a scale of 0 to 100, where 0 represents no injury and 100 represents plant death. At 21 DAT, plants were harvested at the soil surface, dried for 48 h at 70 C, and weighed to determine dry matter. Dry matter data for each experimental unit was divided by the average dry matter of the untreated control plants of that biotype and multiplied by 100 to determine relative percent biomass to the untreated control. Dry matter data for each experimental unit was also divided by the average dry matter data of the glyphosate-treated plants of that biotype to determine growth in the three weeks after herbicide application. Data were subjected to ANOVA using Proc GLM of SAS 9.1 (SAS Institute Inc., Cary, N.C.). The Run by Herbicide by Population interaction was significant for each variable, so runs were analyzed separately. The Herbicide by Population interaction was also significant for each run and each variable, so data were analyzed by herbicide to describe differences among the populations. Treatment means were separated using Duncan's Multiple Range test.
# [2] = test system: shattercane biotype P2-205 (Mutant A); conditions: dry matter and visual ratings
# Protocol: as §1
# [3] = test system: shattercane biotype P8-30 (Mutant C); conditions: for resistance of the biotype to the herbicide: biotype P8-30 (Mutant C), relative to the wild-type, dry matter and visual ratings; for growth reduction: biotype P8-30, growth in the three weeks after herbicide application
# Protocol: as §1
# [4] = test system: shattercane biotype 5-4Farm (Mutant D); conditions: plants harvested 21 DAT
# Protocol: as §1
# wild type shattercane = conditions: wild type biotype, plants harvested 21 DAT
# Protocol: as §1
Structure (SMILES),resistance of the biotype to the herbicide [1],resistance of the biotype to the herbicide [2],resistance of the biotype to the herbicide [3],other results
COc1cc(OC)nc(NC(=O)NS(=O)(=O)c2cc(NC=O)ccc2C(=O)N(C)C)n1 [foramsulfuron],resistant,partially resistant,resistance,resistance of the biotype to the herbicide ([1]; listed as Foramsulfuron): resistance; resistance of the biotype to the herbicide ([2]; listed as Foramsulfuron): resistance
COc1cnc(OC)n2nc(NS(=O)(=O)c3c(OCC(F)F)cccc3C(F)(F)F)nc12 [penoxsulam],–,–,–,effect on dry matter [4]: did not reduce dry matter; effect on dry matter (wild type shattercane): did not reduce dry matter
CCS(=O)(=O)c1cccnc1S(=O)(=O)NC(=O)Nc1nc(OC)cc(OC)n1 [rimsulfuron],–,–,partial resistance,resistance of the biotype to the herbicide ([3]; listed as Rimsulfuron): resistance; growth reduction [3]: ~84%
COc1nn(C(=O)NS(=O)(=O)c2c(C(=O)O)csc2C)c(=O)n1C [thiencarbazone],partially resistant,partially resistant,resistance,resistance of the biotype to the herbicide ([1]; listed as Thiencarbazone): resistance; resistance of the biotype to the herbicide ([2]; listed as Thiencarbazone): resistance
COc1nc(C)nc(NC(=O)NS(=O)(=O)c2ccccc2Cl)n1 [chlorsulfuron],resistance,resistant,resistance,resistance of the biotype to the herbicide ([2]; listed as Chlorsulfuron): resistance
O=C(Nc1nc(OC(F)F)cc(OC(F)F)n1)NS(=O)(=O)c1ccccc1C(=O)O [primisulfuron],partially resistant,partially resistant,resistance,resistance of the biotype to the herbicide ([1]; listed as Primisulfuron): resistance; resistance of the biotype to the herbicide ([2]; listed as Primisulfuron): resistance
CCCOc1nn(C(=O)[N-]S(=O)(=O)c2ccccc2C(=O)OC)c(=O)n1C.[Na+] [propoxycarbazone],resistant,resistant,resistance,resistance of the biotype to the herbicide ([1]; listed as Propoxycarbazone): resistance; resistance of the biotype to the herbicide ([2]; listed as Propoxycarbazone): resistance
CCc1cnc(C2=NC(C)(C(C)C)C(=O)N2)c(C(=O)O)c1 (stereo not drawn) [Imazethapyr],–,–,resistance,–
CC(C)C1(C)N=C(c2nc3ccccc3cc2C(=O)O)NC1=O (stereo not drawn) [Imazaquin],–,–,resistance,–
COCc1cnc(C2=NC(C)(C(C)C)C(=O)N2)c(C(=O)O)c1 (stereo not drawn) [imazamox],–,partially resistant,resistance,resistance of the biotype to the herbicide ([2]; listed as Imazamox): resistance
COc1cc(OC)nc(Oc2cccc(Oc3nc(OC)cc(OC)n3)c2C(=O)O)n1 [bispyribac],–,–,partial resistance,resistance of the biotype to the herbicide ([3]; listed as Bispyribac): resistance; growth reduction [3]: approximately 65%
COc1cc(OC)nc(NC(=O)NS(=O)(=O)c2ncccc2C(=O)N(C)C)n1 [nicosulfuron],resistant,–,resistance,–
